# Results from PMC7070685, “Efficient Biocatalytic Synthesis of Dihalogenated Purine Nucleoside Analogues Applying Thermodynamic Calculations” (Molecules, 2020).
# What was measured:
# [1] = test system: HEK293 cells; experiment: XTT cell proliferation assay, control cell line HEK293; type: cell-based; conditions: control cell line HEK293, XTT assay after 24 h
# Protocol: (§1) HEK293 cells were cultured in […] Dulbecco’s modified Eagle’s medium (Biowest) containing 10% fetal bovine serum, 2 mM glutamine, non-essential amino acids, 4.5 mg mL^−1 glucose, and the antibiotics penicillin and streptomycin. HL-60 cells were cultured in RPMI 1640 w/o L-Glutamine supplemented with 10% fetal bovine serum, 2 mM glutamine, and the antibiotics penicillin and streptomycin. Cells were grown at 37 °C in a humidified atmosphere with 5% CO2.
# (§2) Cytotoxicity was measured by the XTT assay at 450 nm as described by the manufacturer (Roche Diagnostics, Basel, Switzerland). Phosphate-buffered saline was used as negative control. For HL-60 and HEK293 cells, 1.2 × 10^5 cells in growth media were transferred to each well of a 96-well flat-bottom plate. Subsequently, modified nucleosides were added in varying concentrations. XTT assay was performed after 24 h for HL-60 and HEK293 cells, as described previously. At least three replicates for each nucleoside concentration were performed. All experiments were conducted for a minimum of three independent experiments.
# [2] = test system: HL-60 cells; experiment: XTT cell proliferation assay, HL-60; type: cell-based; conditions: Homo sapiens; leukemia cell line HL-60, XTT assay after 24 h; read-out: IC50, inhibition of growth of HL-60 cells
# Protocol: as §1, §2
structure (smiles),measurement,setting,value
Nc1nc(Cl)nc2c1ncn2[C@H]1C[C@H](O)[C@@H](CO)O1 [cladribine],inhibition of growth of the control cell line HEK293,[1],No unspecific growth inhibition
same,IC50,[2],0.22 µM
